Assay [1] has as its target Pyruvate kinase PKLR (Homo sapiens, UniProt P30613, R510Q). The experiment in a line: Activation of PKR R510Q mutant (unknown origin) incubated for 60 mins in presence of ADP, PEP and NADH by Spectraax microplate reader based assay.
The target in assay [2] is Pyruvate kinase PKLR (Homo sapiens, UniProt P30613, R532W). The experiment in a line: Activation of PKR R532W mutant (unknown origin) incubated for 60 mins in presence of ADP, PEP and NADH by Spectraax microplate reader based assay.
Sequence of Pyruvate kinase PKLR (Homo sapiens, UniProt P30613, R532W) (P30613 whole entry R532W): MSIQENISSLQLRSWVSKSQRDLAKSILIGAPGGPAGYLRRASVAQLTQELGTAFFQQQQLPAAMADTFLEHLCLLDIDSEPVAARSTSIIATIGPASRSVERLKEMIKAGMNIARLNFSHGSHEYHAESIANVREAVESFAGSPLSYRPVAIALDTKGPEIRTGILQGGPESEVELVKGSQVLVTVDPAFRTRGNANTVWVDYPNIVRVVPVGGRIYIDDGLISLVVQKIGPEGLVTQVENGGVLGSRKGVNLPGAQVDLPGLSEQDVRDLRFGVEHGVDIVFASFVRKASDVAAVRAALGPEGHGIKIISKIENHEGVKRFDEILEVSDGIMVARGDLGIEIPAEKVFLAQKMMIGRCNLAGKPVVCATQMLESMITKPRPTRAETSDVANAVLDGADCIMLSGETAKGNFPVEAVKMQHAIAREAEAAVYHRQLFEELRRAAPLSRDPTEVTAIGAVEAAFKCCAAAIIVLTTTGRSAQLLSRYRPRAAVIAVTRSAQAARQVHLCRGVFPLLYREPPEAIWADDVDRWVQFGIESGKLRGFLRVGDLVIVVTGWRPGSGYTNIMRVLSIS
Assay [3] has as its target T1, Pyruvate kinase PKLR (Homo sapiens, UniProt P30613). The experiment in a line: Activation of wild type PKR (unknown origin) by cell based assay.
The target in assay [4] is T1, Pyruvate kinase PKLR. The experiment in a line: Activation of wild type PKR (unknown origin) incubated for 60 mins in presence of ADP, PEP and NADH by Spectraax microplate reader based assay.

The values below come from ChEMBL document CHEMBL3727356, “Therapeutic compounds and compositions” (2014).

Sequence of Pyruvate kinase PKLR (Homo sapiens, UniProt P30613, R510Q) (P30613 whole entry R510Q): as the sequence (P30613 whole entry R532W) above, with R510Q, W532R counted along it
T1 sequence (P30613 whole entry): as the sequence (P30613 whole entry R532W) above, with W532R counted along it

Regarding `Cc1cc(C(=O)N2CCC(O)(c3ccccc3Cl)CC2)ccc1NS(=O)(=O)c1cccc2cccnc12`, the half-maximal activity concentration (AC50) on Pyruvate kinase PKLR [1], on Pyruvate kinase PKLR [2], at Pyruvate kinase PKLR [3] and at Pyruvate kinase PKLR [4] was less than 100 nM in each case.
Turning to `Nc1nc2c(S(=O)(=O)Nc3ccc(C(=O)N4CCC(O)(c5ccccc5Cl)CC4)cc3)cc(F)cc2s1`, the AC50 at Pyruvate kinase PKLR [1], on Pyruvate kinase PKLR [2], on Pyruvate kinase PKLR [3] and on Pyruvate kinase PKLR [4] was less than 100 nM in each case.
On to `O=C(c1ccc(NS(=O)(=O)c2cccc3cccnc23)cc1F)N1CCC(O)(Cc2ccccc2)CC1`, for which the half-maximal activity concentration (AC50) at Pyruvate kinase PKLR [1], at Pyruvate kinase PKLR [2], on Pyruvate kinase PKLR [3] and on Pyruvate kinase PKLR [4] was less than 100 nM in each case.
Consider `CC(C)(C)CC1(O)CCN(C(=O)c2ccc(NS(=O)(=O)c3cccc4scnc34)cc2)CC1`, for which the half-maximal activity concentration (AC50) at Pyruvate kinase PKLR [1], on Pyruvate kinase PKLR [2], on Pyruvate kinase PKLR [3] and on Pyruvate kinase PKLR [4] was less than 100 nM throughout.
Consider `Cc1cc(F)ccc1C1(O)CCN(C(=O)c2ccc(NS(=O)(=O)c3cccc4cccnc34)cc2)CC1`, for which the half-maximal activity concentration (AC50) at Pyruvate kinase PKLR [1], at Pyruvate kinase PKLR [2], at Pyruvate kinase PKLR [3] and on Pyruvate kinase PKLR [4] was less than 100 nM throughout.
With `C=C(CC1(O)CCN(C(=O)c2ccc(NS(=O)(=O)c3cccc4scnc34)cc2)CC1)C(F)(F)F`, the concentration at half-maximal activity (AC50) at Pyruvate kinase PKLR [1], at Pyruvate kinase PKLR [2], at Pyruvate kinase PKLR [3] and at Pyruvate kinase PKLR [4] was less than 100 nM each time.
Regarding `Cc1cc(C(=O)N2CCC(O)(c3cccc(Cl)c3)CC2)ccc1NS(=O)(=O)c1cccc2cccnc12`, the AC50 was not above 1000 nM at Pyruvate kinase PKLR [1], less than 100 nM at Pyruvate kinase PKLR [2], less than 100 nM at Pyruvate kinase PKLR [3] and less than 100 nM at Pyruvate kinase PKLR [4].
`Cc1nscc1CC1(O)CCN(C(=O)c2ccc(NS(=O)(=O)c3cccc4nccnc34)cc2)CC1`: the concentration at half-maximal activity (AC50) on Pyruvate kinase PKLR [1], at Pyruvate kinase PKLR [2], on Pyruvate kinase PKLR [3] and on Pyruvate kinase PKLR [4] was less than 100 nM each time.
As for `CC(C)(C)CC1(O)CCN(C(=O)c2ccc(NS(=O)(=O)c3cccc4cccnc34)cc2)CC1`, the half-maximal activity concentration (AC50) at Pyruvate kinase PKLR [1], on Pyruvate kinase PKLR [2], on Pyruvate kinase PKLR [3] and on Pyruvate kinase PKLR [4] was less than 100 nM in each case.
For `CC(C)CC1(O)CCN(C(=O)c2ccc(NS(=O)(=O)c3cccc4nc(N)cnc34)cc2)CC1`, the AC50 on Pyruvate kinase PKLR [1], at Pyruvate kinase PKLR [2], at Pyruvate kinase PKLR [3] and at Pyruvate kinase PKLR [4] was less than 100 nM in each case.
Turning to `CNc1nc2c(S(=O)(=O)Nc3ccc(C(=O)N4CCC(O)(CC(C)C)CC4)cc3)cc(Cl)cc2s1`, the AC50 on Pyruvate kinase PKLR [1], at Pyruvate kinase PKLR [2], on Pyruvate kinase PKLR [3] and on Pyruvate kinase PKLR [4] was less than 100 nM each time.
`Nc1cnc2c(S(=O)(=O)Nc3ccc(C(=O)N4CCC(O)(CCCC(F)(F)F)CC4)cc3)cccc2n1`: the AC50 at Pyruvate kinase PKLR [1], on Pyruvate kinase PKLR [2], at Pyruvate kinase PKLR [3] and at Pyruvate kinase PKLR [4] was less than 100 nM each time.
With `O=C(c1ccc(NS(=O)(=O)c2cccc3cccnc23)cc1)N1CCC(O)(c2ccc(F)c(Br)n2)CC1`, the AC50 on Pyruvate kinase PKLR [1], at Pyruvate kinase PKLR [2], on Pyruvate kinase PKLR [3] and on Pyruvate kinase PKLR [4] was less than 100 nM throughout.
With `CC(C)CC1(CO)CCN(C(=O)c2ccc(NS(=O)(=O)c3cccc4cccnc34)cc2)CC1`, the half-maximal activity concentration (AC50) on Pyruvate kinase PKLR [1], on Pyruvate kinase PKLR [2], on Pyruvate kinase PKLR [3] and on Pyruvate kinase PKLR [4] was less than 100 nM each time.
As for `CC1(CC2(O)CCN(C(=O)c3ccc(NS(=O)(=O)c4cccc5cccnc45)cc3)CC2)CC1`, the concentration at half-maximal activity (AC50) on Pyruvate kinase PKLR [1], on Pyruvate kinase PKLR [2], on Pyruvate kinase PKLR [3] and on Pyruvate kinase PKLR [4] was less than 100 nM throughout.
For `O=C(c1ccc(NS(=O)(=O)c2cccc3scnc23)cc1)N1CCC(O)(CCCC(F)F)CC1`, the AC50 on Pyruvate kinase PKLR [1], on Pyruvate kinase PKLR [2], on Pyruvate kinase PKLR [3] and at Pyruvate kinase PKLR [4] was less than 100 nM each time.
Consider `CC(C)CC1(O)CCN(C(=O)c2ccc(NS(=O)(=O)c3cccc4ncc(N)nc34)cc2)CC1`, for which the concentration at half-maximal activity (AC50) on Pyruvate kinase PKLR [1], on Pyruvate kinase PKLR [2], at Pyruvate kinase PKLR [3] and at Pyruvate kinase PKLR [4] was less than 100 nM throughout.
With `CC(C)CC1(O)CCN(C(=O)c2ccc(NS(=O)(=O)c3cc(F)cc4sc(N)nc34)cc2)CC1`, the half-maximal activity concentration (AC50) at Pyruvate kinase PKLR [1], on Pyruvate kinase PKLR [2], on Pyruvate kinase PKLR [3] and at Pyruvate kinase PKLR [4] was less than 100 nM each time.
`O=C(c1ccc(NS(=O)(=O)c2cccc3cccnc23)cc1)N1CCC(O)(c2ccccc2Cl)CC1`: the AC50 on Pyruvate kinase PKLR [1], on Pyruvate kinase PKLR [2], on Pyruvate kinase PKLR [3] and at Pyruvate kinase PKLR [4] was less than 100 nM throughout.
`Nc1nc2c(S(=O)(=O)Nc3ccc(C(=O)N4CCC(O)(c5cccc(F)c5F)CC4)cc3)cccc2s1`: the AC50 at Pyruvate kinase PKLR [1], at Pyruvate kinase PKLR [2], on Pyruvate kinase PKLR [3] and on Pyruvate kinase PKLR [4] was less than 100 nM in each case.
On to `O=C(c1ccc(NS(=O)(=O)c2cccc3cccnc23)cc1)N1CCC(O)(c2ccc(F)cc2Cl)CC1`, for which the AC50 on Pyruvate kinase PKLR [1], at Pyruvate kinase PKLR [2], on Pyruvate kinase PKLR [3] and at Pyruvate kinase PKLR [4] was less than 100 nM in each case.
As for `Cc1cc(C(=O)N2CCC(O)(c3ccccc3Cl)CC2)ccc1NS(=O)(=O)c1cccc2nccnc12`, the AC50 at Pyruvate kinase PKLR [1], at Pyruvate kinase PKLR [2], on Pyruvate kinase PKLR [3] and on Pyruvate kinase PKLR [4] was less than 100 nM in each case.
As for `O=C(c1ccc(NS(=O)(=O)c2cccc3cccnc23)cc1)N1CCC(O)(c2ccccc2C(F)F)CC1`, the half-maximal activity concentration (AC50) at Pyruvate kinase PKLR [1], on Pyruvate kinase PKLR [2], at Pyruvate kinase PKLR [3] and on Pyruvate kinase PKLR [4] was less than 100 nM throughout.
For the compound `O=C(c1ccc(NS(=O)(=O)c2cccc3nccnc23)cc1)N1CCC(O)(Cc2ccccc2C(F)(F)F)CC1`, the AC50 on Pyruvate kinase PKLR [1], on Pyruvate kinase PKLR [2], at Pyruvate kinase PKLR [3] and on Pyruvate kinase PKLR [4] was less than 100 nM each time.
`Cc1ccccc1CC1(O)CCN(C(=O)c2ccc(NS(=O)(=O)c3cccc4cccnc34)cc2)CC1`: the AC50 at Pyruvate kinase PKLR [1], at Pyruvate kinase PKLR [2], at Pyruvate kinase PKLR [3] and on Pyruvate kinase PKLR [4] was less than 100 nM each time.
Turning to `CCc1ccccc1C1(O)CCN(C(=O)c2ccc(NS(=O)(=O)c3cccc4cccnc34)cc2)CC1`, the half-maximal activity concentration (AC50) at Pyruvate kinase PKLR [1], at Pyruvate kinase PKLR [2], at Pyruvate kinase PKLR [3] and on Pyruvate kinase PKLR [4] was less than 100 nM each time.
Regarding `O=C(c1ccc(NS(=O)(=O)c2cccc3nccnc23)cc1)N1CCC(O)(CCC=C(F)F)CC1`, the half-maximal activity concentration (AC50) on Pyruvate kinase PKLR [1], on Pyruvate kinase PKLR [2], on Pyruvate kinase PKLR [3] and on Pyruvate kinase PKLR [4] was less than 100 nM throughout.
As for `Cc1nscc1CC1(O)CCN(C(=O)c2ccc(NS(=O)(=O)c3cccc4scnc34)cc2)CC1`, the half-maximal activity concentration (AC50) at Pyruvate kinase PKLR [1], at Pyruvate kinase PKLR [2], at Pyruvate kinase PKLR [3] and at Pyruvate kinase PKLR [4] was less than 100 nM in each case.
In the case of `O=C(c1ccc(NS(=O)(=O)c2ccc(F)c3cccnc23)cc1)N1CCC(O)(Cc2ccccc2F)CC1`, the half-maximal activity concentration (AC50) on Pyruvate kinase PKLR [1], on Pyruvate kinase PKLR [2] and at Pyruvate kinase PKLR [4] was less than 100 nM throughout.
For the compound `CC1(O)CCC(C2(O)CCN(C(=O)c3ccc(NS(=O)(=O)c4cccc5scnc45)cc3)CC2)CC1` (centres undefined), the half-maximal activity concentration (AC50) is not below 1010 nM on Pyruvate kinase PKLR [1], not below 1010 nM at Pyruvate kinase PKLR [2] and not above 1000 nM at Pyruvate kinase PKLR [4].
For the compound `CC1(O)CCC(C2(O)CCN(C(=O)c3ccc(NS(=O)(=O)c4cccc5nccnc45)cc3)CC2)CC1` (centres undefined), the AC50 at Pyruvate kinase PKLR [1], at Pyruvate kinase PKLR [2] and at Pyruvate kinase PKLR [4] was not above 1000 nM throughout.
For the compound `CC1(CC2(O)CCN(C(=O)c3ccc(NS(=O)(=O)c4cccc5scnc45)cc3)CC2)CC1`, the AC50 on Pyruvate kinase PKLR [1], on Pyruvate kinase PKLR [2] and on Pyruvate kinase PKLR [4] was less than 100 nM in each case.
Regarding `Nc1nc2c(S(=O)(=O)Nc3ccc(C(=O)N4CCC(O)(/C=C/CC(F)(F)F)CC4)cc3)cccc2s1`, the AC50 on Pyruvate kinase PKLR [1], at Pyruvate kinase PKLR [3] and on Pyruvate kinase PKLR [4] was less than 100 nM each time.
In the case of `O=C(c1ccc(NS(=O)(=O)c2cccc3[nH]cnc23)cc1)N1CCC(O)(c2ccccc2Cl)CC1`, the values for the AC50 on Pyruvate kinase PKLR [1], at Pyruvate kinase PKLR [2] and at Pyruvate kinase PKLR [4] were more than 10000 nM, not below 1010 nM and not below 1010 nM, respectively.
With `O=C(c1ccc(NS(=O)(=O)c2cccc3c2OCC3)cc1)N1CCC(O)(c2ccccc2Cl)CC1`, the concentration at half-maximal activity (AC50) on Pyruvate kinase PKLR [1] was more than 10000 nM; at Pyruvate kinase PKLR [2], not below 1010 nM; on Pyruvate kinase PKLR [4] it was not below 1010 nM.
Take `O=C(c1ccc(NS(=O)(=O)c2c[nH]c3cccnc23)cc1)N1CCC(O)(c2ccccc2Cl)CC1`: the AC50 on Pyruvate kinase PKLR [1], at Pyruvate kinase PKLR [2] and at Pyruvate kinase PKLR [4] was more than 10000 nM each time.
In the case of `O=C(c1ccc(NS(=O)(=O)c2ccccc2Cl)cc1)N1CCC(O)(Cc2ccccc2)CC1`, the AC50 on Pyruvate kinase PKLR [1], on Pyruvate kinase PKLR [2] and at Pyruvate kinase PKLR [4] was not above 1000 nM in each case.
Turning to `CC(C)CC1(O)CCN(C(=O)c2ccc(NS(=O)(=O)c3cccc4c3OCC4)cc2)CC1`, the AC50 at Pyruvate kinase PKLR [1], on Pyruvate kinase PKLR [2] and at Pyruvate kinase PKLR [4] was not below 1010 nM each time.
Turning to `O=C(c1ccc(NS(=O)(=O)Cc2ccccn2)cc1)N1CCC(O)(c2ccccc2Cl)CC1`, the AC50 at Pyruvate kinase PKLR [1], at Pyruvate kinase PKLR [2] and on Pyruvate kinase PKLR [4] was more than 10000 nM in each case.
In the case of `CC(C)CC1(O)CCN(C(=O)c2ccc(NS(=O)(=O)c3cccc4ncc(O)nc34)cc2)CC1`, the AC50 on Pyruvate kinase PKLR [1], on Pyruvate kinase PKLR [2] and on Pyruvate kinase PKLR [4] was more than 10000 nM in each case.
Consider `O=C(c1ccc(NS(=O)(=O)n2ccc3cccnc32)cc1)N1CCC(O)(c2ccccc2Cl)CC1`, for which the AC50 on Pyruvate kinase PKLR [1], on Pyruvate kinase PKLR [2] and on Pyruvate kinase PKLR [4] was more than 10000 nM in each case.
For `COc1cc(NS(=O)(=O)c2cccc3cccnc23)ccc1C(=O)N1CCC(O)(Cc2ccccc2)CC1`, the half-maximal activity concentration (AC50) at Pyruvate kinase PKLR [1], at Pyruvate kinase PKLR [2] and on Pyruvate kinase PKLR [4] was less than 100 nM each time.

In general, AC50 refers to the concentration at which the activity in the assay is half-maximal.
